According to US4788197A, “Pyrazine derivatives useful as platelet aggregation inhibitors” (Terumo Kabushiki Kaisha, priority 1985, dated 1988):
Where two headings read alike, the source gives them in different places.

What was measured:
platelet aggregation = test: Platelet aggregation-inhibiting action (Born's turbidimetric method, platelet-rich plasma); assay type: cell-based, rabbit; conditions: Oryctolagus cuniculus, 0.05 h
Description: Nine volumes of blood was drawn from the carotid artery of a rabbit using a syringe containing one volume of 3.8% solution of sodium citrate. The blood was centrifuged to obtain platelet-rich plasma (PRP: 7×10^5 platelets/μl).
In a cuvette was placed 268 μl of the PRP, which was warmed in an isothermic bath at 37° C. for 2 minutes. To the cuvette was added 2 μl of an ethanol solution of a pyrazine derivative to be tested, followed by an incubation for 3 minutes. To the incubate was added a solution of a platelet-aggregation inducer, arachidonic acid or collagen. Measurement was made by Born's turbidimetric method (for example, see J. Physiol., vol. 168, p. 178, 1968). 50% inhibitory concentration for the platelet aggregation caused by arachidonic acid (50 μmol.) or collagen (10 μg/ml) was given in Table 1 using acetylsalicylic acid as the reference.
The 50% inhibitory concentration as shown in table means the concentration of a solution of the pyrazine derivative required for inhibiting the platelet aggregation to 50% when the platelet aggregation in the absence of a pyrazine derivative is taken as 100%.

cycloxygenase = target: T1, cycloxygenase (Oryctolagus cuniculus, UniProt O97554); test: Cycloxygenase inhibiting activity (washed platelets as cycloxygenase source); assay type: biochemical; conditions: washed rabbit platelets, 14C-labelled arachidonic acid, 37° C., 3 minutes; read-out: 50% Inhibitory concentration (cycloxygenase)
T1 construct: The washed platelets thus obtained were employed as a cycloxygenase source; from tissue; host or cells: washed rabbit blood platelets
T1 sequence (O97554 31-606): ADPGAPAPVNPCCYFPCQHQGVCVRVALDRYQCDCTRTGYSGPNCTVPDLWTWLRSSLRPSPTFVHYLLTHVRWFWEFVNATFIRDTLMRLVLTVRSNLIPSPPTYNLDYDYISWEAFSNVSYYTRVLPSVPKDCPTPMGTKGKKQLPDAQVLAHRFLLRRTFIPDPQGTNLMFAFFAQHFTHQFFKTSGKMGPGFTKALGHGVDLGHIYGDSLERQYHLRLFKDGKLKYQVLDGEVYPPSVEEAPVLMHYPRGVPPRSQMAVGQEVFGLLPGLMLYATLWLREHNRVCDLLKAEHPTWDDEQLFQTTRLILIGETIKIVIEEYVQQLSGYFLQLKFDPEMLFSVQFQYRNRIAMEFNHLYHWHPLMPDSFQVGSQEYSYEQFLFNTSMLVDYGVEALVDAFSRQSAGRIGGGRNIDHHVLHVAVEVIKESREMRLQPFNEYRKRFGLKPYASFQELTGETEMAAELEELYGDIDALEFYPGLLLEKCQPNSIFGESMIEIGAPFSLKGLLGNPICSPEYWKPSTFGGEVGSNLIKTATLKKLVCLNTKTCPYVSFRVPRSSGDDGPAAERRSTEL
Description: Nine volumes of blood was drawn from the abdominal artery of a rabbit using a syringe containing one volume of 3.8% solution of sodium citrate. Centrifugation of the blood afforded platelet-rich plasma. To the platelet-rich plasma was added 77 mM EDTA solution in a volume of 1/10 per volume of the plasma. The mixture was thoroughly mixed and centrifuged at 2500 rpm for 10 minutes. The supernatant was discarded, and the platelets were suspended in approximately 3 ml of a washing solution which was prepared by dissolving 134 mM of sodium chloride, 15 mM of trisaminomethane, 1 mM of EDTA and 5 mM of D-glucose in twice-distilled water with a pH adjusted with 1N hydrogen chloride to 7.4. The suspension was centrifuged at room temperature at 2000 rpm for 10 minutes. The supernatant was discarded, and the precipitated platelets were re-suspended in a phosphate buffer at pH 8.0 to adjust number of the platelets to 1×10^6 per μl.
The washed platelets thus obtained were employed as a cycloxygenase source.
To 3 μg of arachidonic acid and 0.2 μCi (1 μg) of ^14 C-labelled arachidonic acid placed in a glass-stoppered test tube was added one drop of a propylene glycol/ethanol solution (1:3 by volume). The ethanol was evaporated under nitrogen. To the residue were added 50 μl of a solution to be tested and then 450 μl of the washed platelets. The mixture was reacted at 37° C. for 3 minutes.
To the reaction mixture was added with ice cooling one drop of 1N hydrogen chloride to adjust the pH to 2-3. To the resulting mixture was added 2 ml of ethyl acetate, followed by extraction by shaking for 10 minutes and centrifugal separation at 4° C. at 2500 rpm for 10 minutes.
The supernatant was transferred to a flask and concentrated. The residue was dissolved in 100 μl of ethanol, and the entire solution was spotted on a silica gel thin plate (Merck, 60 F254).
The plate was developed by approximately 18 cm with a developer solution (chloroform/methanol/acetic acid/waters=70:8:1:0.8), followed by measurement by a radiochromatoscanner of the sum of radioactivities of prostaglandin F2α, thromboxan B2, […], prostaglandin D2 and HHT to determine the inhibiting activity.

[1] = aggregation induced by arachidonic acid (50 μmol.), rabbit PRP, 37° C., 3 min incubation, read-out: 50% aggregation inhibitory concentration, Arachidonic acid
[2] = aggregation induced by collagen (10 μg/ml), rabbit PRP, 37° C., 3 min incubation, read-out: 50% aggregation inhibitory concentration, Collagen

Structure (SMILES): CC(=O)Oc1ccccc1C(=O)O [Aspirin, acetylsalicylic acid, reference compound]
- IC50 (platelet aggregation; read-out: 50% aggregation inhibitory concentration, Arachidonic acid): 14 µM
- IC50 (platelet aggregation; read-out: 50% aggregation inhibitory concentration, Collagen): 560 µM

Structure (SMILES): Cc1cnc(-c2ccc(Cl)cc2)c(-c2ccc(Cl)cc2)n1 [Example 1, 2,3-bis(p-chlorophenyl)-5-methylpyrazine]
- IC50 (platelet aggregation; [1]): 8.5 µM
- IC50 (platelet aggregation; [2]): 20 µM

Structure (SMILES): COc1ccc(-c2ncc(C)nc2-c2ccc(OC)cc2)cc1 [Example 2, 2,3-bis(p-methoxyphenyl)-5-methylpyrazine]
- IC50 (platelet aggregation; [1]): 0.03 µM
- IC50 (platelet aggregation; [2]): 0.042 µM
- IC50 (cycloxygenase): 30 µM

Structure (SMILES): c1ccc(Cc2cnc(-c3ccccc3)c(-c3ccccc3)n2)cc1 [Example 3, 2,3-diphenyl-5-benzylpyrazine]
- IC50 (platelet aggregation; [1]): 8 µM
- IC50 (platelet aggregation; [2]): 46 µM

Structure (SMILES): COc1ccc(Cc2cnc(-c3ccccc3)c(-c3ccccc3)n2)cc1 [Example 4, 2,3-Diphenyl-5-(p-methoxybenzyl)pyrazine]
- IC50 (platelet aggregation; [1]): 1.7 µM
- IC50 (platelet aggregation; [2]): 35 µM
- IC50 (cycloxygenase): 220 µM

Structure (SMILES): COc1cccc(Cc2cnc(-c3ccccc3)c(-c3ccccc3)n2)c1 [Example 5, 2,3-Diphenyl-5-(m-methoxybenzyl)pyrazine]
- IC50 (platelet aggregation; [1]): 4.5 µM
- IC50 (platelet aggregation; [2]): 14 µM

Structure (SMILES): COc1ccc(-c2ncc(Cc3ccccc3)nc2-c2ccc(OC)cc2)cc1 [Example 6, 2,3-Bis(p-methoxyphenyl)-5-benzylpyrazine]
- IC50 (platelet aggregation; [1]): 0.2 µM
- IC50 (platelet aggregation; [2]): 5 µM

Structure (SMILES): COc1ccc(-c2ncc(C(C)C)nc2-c2ccc(OC)cc2)cc1 [Example 7, 2,3-Bis(p-methoxyphenyl)-5-isopropylpyrazine]
- IC50 (platelet aggregation; [1]): 0.025 µM
- IC50 (platelet aggregation; [2]): 0.79 µM

Structure (SMILES): CCc1cnc(-c2ccc(OC)cc2)c(-c2ccc(OC)cc2)n1 [Example 8, 2,3-bis(p-methoxyphenyl)-5-ethylpyrazine]
- IC50 (platelet aggregation; [1]): 0.046 µM
- IC50 (platelet aggregation; [2]): 0.64 µM

Structure (SMILES): COc1ccc(-c2ncc(Cc3cccs3)nc2-c2ccc(OC)cc2)cc1 [Example 9, 2,3-Bis(p-methoxyphenyl)-5-(2-thienylmethyl)pyrazine]
- IC50 (platelet aggregation; [1]): 0.44 µM
- IC50 (platelet aggregation; [2]): 0.79 µM
- IC50 (cycloxygenase): 86 µM

Structure (SMILES): COc1ccc(-c2nc(C)c(C)nc2-c2ccc(OC)cc2)cc1 [Example 10, 2,3-bis(p-methoxyphenyl)-5,6-dimethylpyrazine]
- IC50 (platelet aggregation; [1]): 0.084 µM
- IC50 (platelet aggregation; [2]): 0.92 µM
- IC50 (cycloxygenase): 62 µM
